Assay results: patent US10858362B2, “Imidazopyrazinones as PDE1 inhibitors” (H. Lundbeck A/S, priority 2015, dated 2020)

Assays:
Format in all cases: biochemical
PDE1C = PDE1C (Homo sapiens (Human), UniProt Q14123); assay: PDE1 inhibition assay, PDE1C; conditions: 15 nM tritium labelled cAMP
Procedure: (§1) Reactions were initiated by addition of the cyclic nucleotide substrate, and reactions were allowed to proceed for 1 h at room temperature before being terminated through mixing with 20 μL (0.2 mg) yttrium silicate SPA beads (PerkinElmer). The beads were allowed to settle for 1 h in the dark before the plates were counted in a Wallac 1450 Microbeta counter.

PDE1A = PDE1A (Homo sapiens (Human), UniProt P54750); assay: PDE1 inhibition assay, PDE1A; conditions: 15 nM tritium labelled cAMP
Sequence of PDE1A (P54750 whole entry): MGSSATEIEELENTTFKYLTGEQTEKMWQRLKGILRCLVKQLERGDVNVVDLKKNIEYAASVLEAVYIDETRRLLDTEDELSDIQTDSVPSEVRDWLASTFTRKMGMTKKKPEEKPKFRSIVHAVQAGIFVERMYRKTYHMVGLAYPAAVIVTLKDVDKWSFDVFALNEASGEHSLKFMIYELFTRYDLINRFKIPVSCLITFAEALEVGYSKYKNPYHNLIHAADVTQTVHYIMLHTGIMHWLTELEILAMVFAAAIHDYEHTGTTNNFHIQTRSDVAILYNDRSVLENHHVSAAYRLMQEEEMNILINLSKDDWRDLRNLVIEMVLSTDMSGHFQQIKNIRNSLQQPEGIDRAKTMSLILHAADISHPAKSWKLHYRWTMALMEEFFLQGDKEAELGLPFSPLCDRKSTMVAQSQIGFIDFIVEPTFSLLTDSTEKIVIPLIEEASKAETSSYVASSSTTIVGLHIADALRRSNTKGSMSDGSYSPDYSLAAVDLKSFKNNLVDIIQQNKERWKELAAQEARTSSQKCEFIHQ
Procedure: Reactions were initiated by addition of the cyclic nucleotide substrate, and reactions were allowed to proceed for 1 h at room temperature before being terminated through mixing with 20 μL (0.2 mg) yttrium silicate SPA beads (PerkinElmer).

PDE1B = PDE1B (Homo sapiens (Human), UniProt Q01064); assay: PDE1 inhibition assay, PDE1B; conditions: 15 nM tritium labelled cAMP
Sequence of PDE1B (Q01064 whole entry): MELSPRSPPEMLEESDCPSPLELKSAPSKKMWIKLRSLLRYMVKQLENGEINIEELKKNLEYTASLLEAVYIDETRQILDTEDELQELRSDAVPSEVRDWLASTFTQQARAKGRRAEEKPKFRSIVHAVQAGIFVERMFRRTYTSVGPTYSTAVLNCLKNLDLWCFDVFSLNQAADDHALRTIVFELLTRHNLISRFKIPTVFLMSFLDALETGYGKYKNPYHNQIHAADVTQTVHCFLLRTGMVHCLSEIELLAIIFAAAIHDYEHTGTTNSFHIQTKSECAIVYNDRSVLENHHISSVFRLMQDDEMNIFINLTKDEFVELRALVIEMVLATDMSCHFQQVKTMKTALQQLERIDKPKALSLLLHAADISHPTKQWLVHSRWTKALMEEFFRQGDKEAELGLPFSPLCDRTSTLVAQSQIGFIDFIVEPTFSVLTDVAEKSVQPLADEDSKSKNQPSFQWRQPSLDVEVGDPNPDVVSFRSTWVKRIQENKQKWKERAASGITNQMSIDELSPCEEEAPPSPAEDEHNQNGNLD
Procedure: as §1

PDE9 = PDE9 (Homo sapiens (Human), UniProt O76083); assay: PDE9 inhibition assay
Sequence of PDE9 (O76083 whole entry): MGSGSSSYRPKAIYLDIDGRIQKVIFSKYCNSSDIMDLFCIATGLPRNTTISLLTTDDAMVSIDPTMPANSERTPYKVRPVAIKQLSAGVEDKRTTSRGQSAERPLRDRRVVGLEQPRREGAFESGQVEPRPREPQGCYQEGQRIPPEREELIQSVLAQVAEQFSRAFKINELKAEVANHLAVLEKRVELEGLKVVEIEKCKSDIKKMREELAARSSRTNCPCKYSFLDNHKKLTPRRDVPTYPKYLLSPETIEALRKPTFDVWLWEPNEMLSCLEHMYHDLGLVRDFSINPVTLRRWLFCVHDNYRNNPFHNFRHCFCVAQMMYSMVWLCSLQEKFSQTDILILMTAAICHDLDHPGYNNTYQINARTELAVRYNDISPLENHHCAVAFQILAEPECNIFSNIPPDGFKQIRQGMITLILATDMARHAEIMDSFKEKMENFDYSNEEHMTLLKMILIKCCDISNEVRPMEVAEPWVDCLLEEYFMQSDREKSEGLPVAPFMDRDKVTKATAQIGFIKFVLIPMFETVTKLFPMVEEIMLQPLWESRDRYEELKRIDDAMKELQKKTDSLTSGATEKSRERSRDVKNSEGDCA
Outline: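 Human PDE9 in 50 mM HEPES pH 7.6, 10 mM MgCl2, 0.02% Tween20, enzyme set to convert 20-25% of 10 nM ^3H-cAMP substrate; inhibitors at varying amounts. 1 hr incubation, stopped with yttrium silicate SPA beads, settled 1 hr in dark, then scintillation counted.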

Sequence of PDE1C (Q14123 whole entry): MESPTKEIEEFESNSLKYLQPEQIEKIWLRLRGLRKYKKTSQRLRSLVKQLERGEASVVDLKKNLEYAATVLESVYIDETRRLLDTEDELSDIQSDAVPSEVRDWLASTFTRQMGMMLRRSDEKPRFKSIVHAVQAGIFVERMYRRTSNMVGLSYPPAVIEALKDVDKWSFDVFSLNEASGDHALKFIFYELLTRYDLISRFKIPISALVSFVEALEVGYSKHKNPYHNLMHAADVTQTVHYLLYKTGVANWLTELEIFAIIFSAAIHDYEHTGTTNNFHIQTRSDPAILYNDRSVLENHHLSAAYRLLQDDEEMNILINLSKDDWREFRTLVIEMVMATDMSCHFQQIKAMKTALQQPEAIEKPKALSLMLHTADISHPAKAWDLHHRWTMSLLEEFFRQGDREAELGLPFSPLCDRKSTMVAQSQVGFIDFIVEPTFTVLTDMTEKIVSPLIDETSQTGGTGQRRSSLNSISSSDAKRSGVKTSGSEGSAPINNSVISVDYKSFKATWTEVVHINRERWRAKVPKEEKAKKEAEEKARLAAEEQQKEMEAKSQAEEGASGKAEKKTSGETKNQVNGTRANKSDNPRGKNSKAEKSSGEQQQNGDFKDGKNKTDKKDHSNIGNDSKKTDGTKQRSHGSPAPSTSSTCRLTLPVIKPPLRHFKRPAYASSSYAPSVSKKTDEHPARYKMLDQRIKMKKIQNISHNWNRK

Compound	IC50 (PDE1C) [nM]	IC50 (PDE1A) [nM]	IC50 (PDE1B) [nM]	inhibition at 10 µM (PDE9) [%]
COc1ccc(Cn2c(C)cn3c(C4(C)CCN(S(N)(=O)=O)C4)ncc3c2=O)cc1 (stereo not drawn) [Example 91, 3-(7-(4-methoxybenzyl)-6-methyl-8-oxo-7,8-dihydroimidazo[1,5-a]pyrazin-3-yl)-3-methylpyrrolidine-1-sulfonamide]	417	181	185	20
COc1ccc(Cn2c(CC3CCCC3)cn3c(C4CCOCC4)ncc3c2=O)cc1 [Example 92, 6-(cyclopentylmethyl)-7-(4-methoxybenzyl)-3-(tetrahydro-2H-pyran-4-yl)imidazo[1,5-a]pyrazin-8(7H)-one]	79	71	11	57
COc1ccc(Cn2c(C)cn3c(N4CCOC(C)(C)C4)ncc3c2=O)cc1 [Example 98, 3-(2,2-dimethylmorpholino)-7-(4-methoxybenzyl)-6-methylimidazo[1,5-a]pyrazin-8(7H)-one]	135	287	102	4

Further lines, results first:

IC50 (PDE1C) [nM]	IC50 (PDE1A) [nM]	IC50 (PDE1B) [nM]	inhibition at 10 µM (PDE9) [%]	Compound
99	96	52	23	COc1ccc(Cn2c(C)cn3c(N4CCOCC4)ncc3c2=O)cc1 [Example 93, 3-(morpholino)-7-(4-methoxybenzyl)-6-methylimidazo[1,5-a]pyrazin-8(7H)-one]
218	258	162	9	COc1ccc(Cn2c(C)cn3c(N4CCOC[C@H]4C)ncc3c2=O)cc1 [Example 95, (R)-7-(4-methoxybenzyl)-6-methyl-3-(3-methylmorpholino)imidazo[1,5-a]pyrazin-8(7H)-one]
128	202	82	-8	COc1ccc(Cn2c(C)cn3c(N4CCCOCC4)ncc3c2=O)cc1 [Example 97, 7-(4-methoxybenzyl)-6-methyl-3-(1,4-oxazepan-4-yl)imidazo[1,5-a]pyrazin-8(7H)-one]
